The nature of series [1]: Pharmacokinetic model: typical-rat PK from satellite PK experiments, oral dosing. In kind it is in vivo, rats. Conditions: Sprague-Dawley, plasma.
Series [2] concerns telemetered rat (transitions between SLEEP and WAKE states). In kind it is in vivo, Male Sprague–Dawley rats.

For orientation: Cmax means the highest concentration seen after dosing. In general, Tmax refers to the time at which the peak concentration occurs. By EC50 is commonly meant the midpoint of the concentration-response curve. Higher therefore signals a need for much substance.

As for `COC(=O)C(c1ccccc1)C1CCCCN1` (centres unmarked) [methylphenidate, Methylphenidate], the maximum concentration (Cmax) in series [1] (3 mg) stood at 44 nM; in series [1] (10 mg) it was 146 nM; in series [1] (30 mg), 438 nM. The Tmax in series [1] (3 mg), in series [1] (10 mg) and in series [1] (30 mg) was 12 s each time. In series [2] (Rattus norvegicus, intensity v (SLEEP to WAKE, clearance of sleep), plasma concentration, mean (95% confidence limits)), this compound yielded a 50% effective concentration (EC50) of 0.288 µM. Besides, the “Teq,drug (equilibrium half-life plasma to effect compartment)” value in series [2] (delay on intensity u (acquisition of sleep), mean (95% confidence limits)) was 24 (17, 40) min. Moreover, the “overall effect on sleep/wakefulness compared to placebo” value in series [2] (rats, Figs. 4 and 6) is reported as “tend to promote wakefulness”. The “relative potency in inducing sleep fragmentation, methylphenidate versus NCE” value in series [2] (rats, from estimated maximum effects) is given as “fivefold more potent”. Moreover, the “effect on the transitions between sleep states (intensities)” value in series [2] (rats, sign of Emax values, Fig. 2) is on record as “inhibit the transitions from one sleep status to another”.

The record behind these values is article PMC3215869 (Journal of Pharmacokinetics and Pharmacodynamics, 2011).
